Source: ChEMBL document CHEMBL4602697 (J Med Chem, 2020)
Values belong to the compound of their own block, whether it stands above or below them.

How the values were obtained:
[1] = Metabolic stability in Sprague-Dawley rat liver microsomes assessed as parent compound remaining at 20 uM measured for 120 mins by HPLC/MS analysis relative to control; type: ADME, Microsome; details: read-out: Stability
[2] = Permeability across apical to basolateral side in human Caco2 cells coexpressing Pgp at 5 uM in presence of P-gp inhibitor valspodar measured for 3 hrs by UPLC/MS analysis; type: ADME, cell-based; details: caco-2, 3 h
[3] = Permeability across basolateral to apical side in human Caco2 cells coexpressing Pgp at 5 uM measured for 3 hrs by UPLC/MS analysis relative to control; type: ADME, cell-based; details: caco-2, 3 h
[4] = Permeability across basolateral to apical side in human Caco2 cells coexpressing Pgp at 5 uM in presence of P-gp inhibitor valspodar measured for 3 hrs by UPLC/MS analysis; type: ADME, cell-based; details: caco-2, 3 h
[5] = Permeability across apical to basolateral side in human Caco2 cells coexpressing Pgp at 5 uM measured for 3 hrs by UPLC/MS analysis relative to control; type: ADME, cell-based; details: caco-2, 3 h
[6] = target: T1, Muscarinic acetylcholine receptor M2 (Rattus norvegicus, UniProt P10980); assay: Displacement of [3H]-QNB from Wistar rat heart muscarinic M2 receptor
T1 sequence (P10980 whole entry): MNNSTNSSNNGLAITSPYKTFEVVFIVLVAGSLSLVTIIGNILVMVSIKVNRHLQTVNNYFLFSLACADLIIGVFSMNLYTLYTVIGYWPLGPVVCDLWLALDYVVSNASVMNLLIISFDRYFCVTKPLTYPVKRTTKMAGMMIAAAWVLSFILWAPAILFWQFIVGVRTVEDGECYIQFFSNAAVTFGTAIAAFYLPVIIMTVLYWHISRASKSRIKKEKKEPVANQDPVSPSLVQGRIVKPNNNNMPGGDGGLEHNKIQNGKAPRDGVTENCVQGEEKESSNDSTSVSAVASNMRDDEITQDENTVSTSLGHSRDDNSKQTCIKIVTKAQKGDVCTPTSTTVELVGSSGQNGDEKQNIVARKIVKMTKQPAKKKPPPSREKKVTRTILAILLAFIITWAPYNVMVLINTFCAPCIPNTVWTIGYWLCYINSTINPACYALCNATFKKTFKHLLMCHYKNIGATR

[7] = target: Muscarinic acetylcholine receptor M3 (Rattus norvegicus, UniProt P08483); assay: Displacement of [3H]-NMS from Wistar rat salivary gland muscarinic M3 receptor
Chain of Muscarinic acetylcholine receptor M3 (P08483 whole entry): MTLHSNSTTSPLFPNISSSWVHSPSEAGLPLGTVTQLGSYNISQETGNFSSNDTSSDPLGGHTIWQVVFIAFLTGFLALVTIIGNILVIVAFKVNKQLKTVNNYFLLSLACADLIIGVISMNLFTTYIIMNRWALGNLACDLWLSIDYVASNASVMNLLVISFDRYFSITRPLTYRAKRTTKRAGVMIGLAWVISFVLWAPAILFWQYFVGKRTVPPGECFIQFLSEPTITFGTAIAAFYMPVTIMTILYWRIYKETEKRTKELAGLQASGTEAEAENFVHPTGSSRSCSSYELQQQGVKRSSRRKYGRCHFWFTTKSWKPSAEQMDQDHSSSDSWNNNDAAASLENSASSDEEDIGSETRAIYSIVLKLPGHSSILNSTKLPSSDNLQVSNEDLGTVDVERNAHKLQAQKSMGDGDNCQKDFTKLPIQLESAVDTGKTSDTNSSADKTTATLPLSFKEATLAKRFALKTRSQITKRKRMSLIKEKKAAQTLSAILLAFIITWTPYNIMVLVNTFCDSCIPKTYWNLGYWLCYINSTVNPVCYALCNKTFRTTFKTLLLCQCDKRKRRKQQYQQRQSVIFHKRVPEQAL

[8] = target: T2, Muscarinic acetylcholine receptor M1 (Rattus norvegicus, UniProt P08482); assay: Displacement of [3H]pirenzepin from Wistar rat cortex muscarinic M1 receptor
T2 sequence (P08482 whole entry): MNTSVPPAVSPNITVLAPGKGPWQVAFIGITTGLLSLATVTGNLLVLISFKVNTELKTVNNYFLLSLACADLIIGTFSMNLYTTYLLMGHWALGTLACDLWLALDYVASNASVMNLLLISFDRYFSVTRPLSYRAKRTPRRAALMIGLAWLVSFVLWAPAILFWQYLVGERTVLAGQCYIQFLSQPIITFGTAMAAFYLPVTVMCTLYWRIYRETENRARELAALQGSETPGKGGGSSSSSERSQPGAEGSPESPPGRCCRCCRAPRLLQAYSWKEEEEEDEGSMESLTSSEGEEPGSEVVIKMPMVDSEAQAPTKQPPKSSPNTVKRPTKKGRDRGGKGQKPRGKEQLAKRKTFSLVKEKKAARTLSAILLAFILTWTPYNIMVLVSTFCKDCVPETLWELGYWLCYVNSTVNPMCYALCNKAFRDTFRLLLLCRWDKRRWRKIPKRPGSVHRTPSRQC

[9] = target: Muscarinic receptor M2 and M3 (Rattus norvegicus) (UniProt P08483+P10980); assay: Ratio of Ki for displacement of [3H]-QNB from Wistar rat heart muscarinic M2 receptor to Ki for displacement of [3H]-NMS from Wistar rat salivary gland muscarinic M3 receptor; type: protein assay
Chain of Muscarinic receptor M2 and M3 (Rattus norvegicus) (P08483 whole entry, looked up, one chain of several): as the sequence (P08483 whole entry) above

Rattus norvegicus = species: Rattus norvegicus; assay: Ratio of Ki for displacement of [3H]pirenzepin from Wistar rat cortex muscarinic M1 receptor to Ki for displacement of [3H]-NMS from Wistar rat salivary gland muscarinic M3 receptor

Compound: C[N+]12CCC(CC1)[C@@H](OC(=O)Nc1ccc(F)cc1-c1ccc(F)c(Cl)c1)C2
remaining at 2 h, 20 µM [1]: 63%

Compound: C[N+]12CCC(CC1)[C@@H](OC(=O)Nc1ccc(F)cc1-c1cccc(Cl)c1)C2
remaining at 2 h, 20 µM [1]: 65%

Compound: O=C(Nc1ccccc1-c1ccccc1)O[C@H]1CN2CCC1CC2
Ki [6]: 7.6 nM
Ki [7]: 0.47 nM
Ki [8]: 0.65 nM

Further lines, results first:

remaining at 2 h, 20 µM [1]: 74%
Compound: O=C(Nc1ccc(F)cc1-c1ccc(F)c(Cl)c1)OCC1CCNCC1

remaining at 2 h, 20 µM [1]: 53%
Compound: O=C(Nc1ccc(F)cc1-c1cccc(Cl)c1)OCC1CCNCC1

permeability [2]: 10.2%
permeability [3]: 19.9%
permeability [4]: 10.5%
permeability [5]: 6.7%
Compound: C[C@H]1O[C@@H](O[C@H]2[C@@H](O)C[C@H](O[C@H]3[C@@H](O)C[C@H](O[C@H]4CC[C@@]5(C)[C@H](CC[C@@H]6[C@@H]5C[C@@H](O)[C@]5(C)[C@@H](C7=CC(=O)OC7)CC[C@]65O)C4)O[C@@H]3C)O[C@@H]2C)C[C@H](O)[C@@H]1O [DIGOXIN]

Ki [6]: 270 nM
Ki [7]: 27 nM
Ki [8]: 32 nM
Ratio Ki [9]: 10
Ratio Ki (Rattus norvegicus): 1.2
Compound: O=C(Nc1ccccc1-c1ccccc1)OC1CCNCC1
